{"source": "patent US20170087120A1", "about": "“COMPOSITION FOR IMPROVING BIOAVAILBILITY AND EFFICACY OF TAXANE” (Florida A&M University, priority 2015, published 2017)", "key": {"Caco-2 monolayer": {"system": "Caco-2 monolayer", "assay": "permeability and efflux across Caco-2 monolayer", "conditions": "co-treated with piperlongumine", "from_the_text": "In FIG. 1B, Caco-2 is colon carcinoma cells used to evaluate the permeability and efflux of drug in GI track."}, "[1]": {"assay": "in vivo oral pharmacokinetic in SD rats", "conditions": "coadministration with PPL vs DTX alone"}, "CYP3A4": {"system": "CYP3A4", "assay": "in vitro microsomal metabolism of taxane by human liver microsomes", "format": "in vitro ADME", "conditions": "for metabolism of docetaxel (DTX) by human liver microsomes: PPL added in reaction mixture with DTX", "protocol": "In FIG. 1A, in vitro microsomal metabolism studies of DTX by human liver microsomes were carried out in combination with PPL and compared with a known standard CYP3A4 inhibitor, Cyclosporin A (CYA)."}, "MDA-MB-231 cell line": {"system": "MDA-MB-231 cell line", "assay": "in vitro migration assay", "format": "cell-based", "from_the_text": "FIG. 2C depicts in vitro migration assay on MDA-MB-231 cell line."}, "[2]": {"conditions": "cancer cell lines, with piperlongumine"}}, "data": [{"smiles": "COc1cc(/C=C/C(=O)N2CCC=CC2=O)cc(OC)c1OC", "note": "[PPL, piperlongumine]", "values": [{"measurement": "permeability co-efficient of docetaxel", "setting": "Caco-2 monolayer", "value": "enhancement"}, {"measurement": "oral bioavailability of docetaxel (DTX)", "setting": "[1]", "value": "significant enhancement"}, {"measurement": "oral bioavailability of docetaxel (DTX)", "setting": "[1]; listed as Piperlongumine", "value": "significantly enhanced"}, {"measurement": "metabolism of docetaxel (DTX) by human liver microsomes", "setting": "CYP3A4", "value": "significantly reduced"}, {"measurement": "metabolism of docetaxel (DTX) by human liver microsomes", "setting": "CYP3A4; listed as Piperlongumine", "value": "reduction"}, {"measurement": "half-life of DTX", "setting": "CYP3A4; human liver microsomes, PPL added in reaction mixture", "value": "doubled"}, {"measurement": "CYP3A4 inhibition", "setting": "CYP3A4; human liver microsomes, compared with Cyclosporin A (CYA)", "value": "comparable to inhibitor CYA"}, {"measurement": "metabolism of paclitaxel by human microsomal enzyme", "setting": "CYP3A4; with piperlongumine", "value": "reduction"}, {"measurement": "% bridging of migration area", "setting": "MDA-MB-231 cell line; MDA-MB-231 cell line", "value": "significant reduction"}, {"measurement": "anti-migration effect of docetaxel", "setting": "MDA-MB-231 cell line; [2]", "value": "enhanced"}, {"measurement": "anti-migration effect of paclitaxel", "setting": "MDA-MB-231 cell line; [2]", "value": "enhanced"}]}]}
